Assay results reported in PMC5297980 (Clinical Pharmacology in Drug Development, 2016).

Tests used:
[1] = Phase 1 methotrexate-isavuconazole interaction study, plasma PK; assay type: in vivo, human
[2] = Phase 1 digoxin-isavuconazole interaction study, plasma PK; assay type: in vivo, human
[3] = tested on: multidrug and toxin extrusion 1 (MATE1); settings: HEK293 cells, [^14C]metformin substrate; ref data on file; cited from earlier work
[4] = tested on: organic anion transporter 1 (OAT1); settings: HEK293 cells, [^3H]‐p‐aminohippuric acid substrate; ref data on file; cited from earlier work
OAT3 = settings: HEK293 cells, [^3H]estrone sulfate substrate; ref data on file; cited from earlier work
[5] = tested on: organic anion‐transporting polypeptide 1B1 (OATP1B1); settings: HEK293 cells, [^3H]estradiol 17β‐D‐glucuronide substrate; ref data on file; cited from earlier work
[6] = tested on: organic cation transporter 1 (OCT1); settings: HEK293 cells, [^14C]tetraethylammonium bromide; ref data on file; cited from earlier work
OCT2 = settings: HEK293 cells, [^14C]metformin substrate; ref data on file; cited from earlier work
[7] = Phase 1 metformin-isavuconazole interaction study, plasma PK
[8] = Phase 1 atorvastatin-isavuconazole interaction study, plasma PK; settings: human, oral, 200 mg
[9] = cited from earlier work
P‐gp = settings: in vitro studies; cited from earlier work
[10] = OATP1B1 substrate; cited from earlier work
[11] = methotrexate + isavuconazole (day 8), mean (SD)
[12] = methotrexate + isavuconazole vs methotrexate alone
[13] = methotrexate alone (day 1), mean (SD)

CN(Cc1nc2c(N)nc(N)nc2[nH]c1=O)c1ccc(C(=O)N[C@@H](CCC(=O)O)C(=O)O)cc1 [7‐Hydroxymethotrexate, 7‐hydroxymethotrexate]
AUC∞ ([1]; methotrexate 7.5 mg single oral dose alone (day 1), mean (SD)): 635.8 (309.3) h·ng/mL | AUClast [1, 11]: 683.2 (272.5) h·ng/mL | Cmax [1, 11]: 36.7 (14.0) ng/mL | t1/2 [1, 11]: 13.0 (2.3) h | Tmax ([1]; methotrexate + isavuconazole (day 8), median (range)): 6.0 (3.5‐10.0) h | AUClast geometric least‐squares mean ratio (90% confidence interval) [1, 12]: 124 (114, 135) % | AUC∞ geometric least‐squares mean ratio (90% confidence interval) [1, 12]: 129 (119, 141) % | Cmax geometric least‐squares mean ratio (90% confidence interval) [1, 12]: 115 (104, 127) % | AUClast [1, 13]: 554.6 (242.6) h·ng/mL | Cmax [1, 13]: 32.1 (13.4) ng/mL | t1/2 [1, 13]: 11.9 (2.9) h | Tmax ([1]; methotrexate alone (day 1), median (range)): 6.0 (5.0‐10.0) h | Mean AUClast higher during concomitant administration with isavuconazole ([1]; vs methotrexate alone): 24% | Mean AUC∞ higher during concomitant administration with isavuconazole ([1]; vs methotrexate alone): 29% | Mean Cmax higher during concomitant administration with isavuconazole ([1]; vs methotrexate alone): 15%

C[C@H]1O[C@@H](O[C@H]2[C@@H](O)C[C@H](O[C@H]3[C@@H](O)C[C@H](O[C@H]4CC[C@@]5(C)[C@H](CC[C@@H]6[C@@H]5C[C@@H](O)[C@]5(C)[C@@H](C7=CC(=O)OC7)CC[C@]65O)C4)O[C@@H]3C)O[C@@H]2C)C[C@H](O)[C@@H]1O [Digoxin, digoxin]
Mean AUClast higher in the presence vs absence of isavuconazole ([2]; digoxin study): 24% | Mean AUC∞ higher in the presence vs absence of isavuconazole ([2]; digoxin study): 25% | Mean Cmax higher in the presence vs absence of isavuconazole ([2]; digoxin study): 33% | AUC(0-t) ([2]; human, plasma, oral, 0.5 mg): 32.9 ng·h/mL | Cmax ([2]; human, plasma, oral, 0.5 mg): 1.6 ng/mL | half-life ([2]; human, plasma, oral, 0.5 mg): 40.9 h | AUC(0-inf) ([2]; human, plasma, po, 0.5 mg): 34.4 ng·h/mL

C[C@@H](c1nc(-c2ccc(C#N)cc2)cs1)[C@](O)(Cn1cncn1)c1cc(F)ccc1F [Isavuconazole, isavuconazole]
AUC ([2]; human, plasma, oral, 200 mg): 102000 ng·h/mL | Cmax ([2]; human, plasma, oral, 200 mg): 6100 ng/mL | Tmax ([2]; human, plasma, oral, 200 mg): 3 h | AUC ([1]; human, plasma, oral, 200 mg): 99400 ng·h/mL | Cmax ([1]; human, plasma, oral, 200 mg): 6200 ng/mL | Tmax ([1]; human, plasma, oral, 200 mg): 3 h | IC50 [3]: 6.31 µM | IC50 [4]: > 10 µM | IC50 (OAT3): > 10 µM | IC50 [5]: 11.2 µM | IC50 [6]: 3.74 µM | Ki [6]: 1.74 µM | IC50 (OCT2): 1.97 µM | Ki (OCT2): 0.69 µM | AUC ([7]; human, plasma, oral, 200 mg): 106000 ng·h/mL | Cmax ([7]; human, plasma, oral, 200 mg): 7100 ng/mL | Tmax ([7]; human, plasma, oral, 200 mg): 3 h | AUC [8]: 77300 ng·h/mL | Cmax [8]: 5300 ng/mL | Tmax [8]: 3 h

CN(C)C(=N)N=C(N)N [Metformin, metformin]
AUC(0-t) ([7]; human, plasma, oral, 850 mg): 9120 ng·h/mL | Tmax ([7]; metformin + isavuconazole (day 8), median (range)): 2.0 (1.0‐4.0) h | Cmax ([7]; metformin alone (day 1), mean (SD)): 1467 (449) ng/mL | Tmax ([7]; metformin alone (day 1), median (range)): 2.5 (1.0‐6.0) h | AUC∞ ([7]; metformin hydrochloride 850 mg single oral dose alone (day 1), mean (SD)): 9303 (2543) h·ng/mL | Mean AUClast higher in the presence vs absence of isavuconazole ([7]; metformin study): 50% | Mean AUC∞ higher in the presence vs absence of isavuconazole ([7]; metformin study): 52% | Mean Cmax higher in the presence vs absence of isavuconazole ([7]; metformin study): 23%

CN(Cc1cnc2nc(N)nc(N)c2n1)c1ccc(C(=O)N[C@@H](CCC(=O)O)C(=O)O)cc1 [Methotrexate, methotrexate]
Cmax ([1]; human, plasma, oral, 7.5 mg): 156 ng/mL | Tmax ([1]; human, plasma, oral, 7.5 mg): 1 h | AUC(0-inf) ([1]; human, plasma, po, 7.5 mg): 620 ng·h/mL | Mean AUClast lower when coadministered with isavuconazole ([1]; vs methotrexate alone): 3% | Mean AUC∞ lower when coadministered with isavuconazole ([1]; vs methotrexate alone): 3% | Mean Cmax lower when coadministered with isavuconazole ([1]; vs methotrexate alone): 11%

CC[C@@H]([C@H](C)O)n1ncn(-c2ccc(N3CCN(c4ccc(OC[C@@H]5CO[C@@](Cn6cncn6)(c6ccc(F)cc6F)C5)cc4)CC3)cc2)c1=O [Posaconazole]
effect on plasma concentrations of digoxin ([9]; ref NOXAFIL package insert): increase plasma concentrations of digoxin

OC(Cn1cncn1)(Cn1cncn1)c1ccc(F)cc1F [fluconazole]
inhibition of P‐gp‐mediated active transport (P‐gp): not an inhibitor

CCC(C)n1ncn(-c2ccc(N3CCN(c4ccc(OCC5COC(Cn6cncn6)(c6ccc(Cl)cc6Cl)O5)cc4)CC3)cc2)c1=O (stereo not drawn) [itraconazole]
increase in plasma digoxin concentrations during coadministration [9]: approximately 80%

CCOc1cc(CC(=O)N[C@@H](CC(C)C)c2ccccc2N2CCCCC2)ccc1C(=O)O [repaglinide]
PK in the presence and absence of isavuconazole [10]: unchanged
